Patent US8258099B2, “Pin1-modulating compounds and methods of use thereof” (Max-Planck-Gesellschaft zur Foerderung der Wissenschaften …, priority 2004, dated 2012)
Square brackets hold non-standard residues; d marks the D form. Peptide text beside a SMILES is read from it. * marks the point of attachment. Biotin = O=C1N[C@H]2[C@H](CS[C@H]2CCCCC(=O)*)N1; d(pT) = C[C@H](OP(=O)(O)O)[C@@H](N)C(=O)O; 2Nal = N[C@@H](Cc1ccc2ccccc2c1)C(=O)O; Bta = N[C@@H](Cc1csc2ccccc12)C(=O)O; Pip = O=C(O)[C@@H]1CCCCN1

Tests used:
[1] = Stability against cellular phosphatases and proteases in HeLa cell lysate; assay type: in vitro ADME; conditions: discussion statement (FIG. 4)
Protocol: FIG. 4 depicts the stability of peptide 17 against cellular phosphatases and proteases. Peptide 17 was incubated for 3 hours in HeLa cell lysate in the absence of phosphatase and protease inhibitors. The mixture was then analyzed by capillary electrophoresis (short dashed line). As controls, the untreated peptide 17 (solid line) and its nonphosphorylated derivative (dotted line) were used. The temperature of the capillary thermostating system was kept at 16° C. Separation buffer was 50 mM sodium phosphate, pH 7.0. Signals were detected at 220 nm.
Peptide 17 was incubated with HeLa cell lysate for 3 h and analyzed with capillary electrophoresis using UV detection at 220 nm on a P/ACE MDQ (Beckman Coulter, Palo Alto, Calif.) system. Fused-silica capillaries (Polymicro Technologies) of 40 cm length at an operation voltage of 20 kV were used. As references, untreated peptide 17 and its nonphosphorylated derivative were used. The samples were hydrodynamically injected with 3.45 kPa for 10 s. 50 mM sodium phosphate buffer (pH 7.0) was used as separation buffer. The system temperature was kept at 16° C.
The stability of peptides 15 and 17 in cytoplasmic extracts from HeLa cells was investigated using MALDI-TOF mass spectrometry and capillary electrophoresis, respectively. In the cytosolic incubation mixture, streptavidin sepharose beads served to isolate peptide 15 fragments after prolonged incubation. […] Therefore, phosphopeptides are useless for evaluating Pin1 functions in vivo unless dephosphorylation can be avoided.

authentic XlPin1 = experiment: Pull down assay, X. laevis embryo lysate; assay type: binding; conditions: no phosphatase inhibitors, streptavidin sepharose
Protocol: (§1) FIGS. 5A-B depict pull down assays showing peptide 16 binds to authentic XlPin1 (A) and hPin1 from HeLa cells (B). FIG. 5A depicts the indicated concentrations of peptide 16 were incubated with X. laevis embryo extract in the absence of phosphatase inhibitors. Peptide 16/XlPin1-complex was then extracted from the respective mixture using streptavidin sepharose. Samples were analyzed regarding coextracted XlPin1 by SDS PAGE followed by western blot analysis. Untreated lysate (input) was loaded as a control. Authentic XlPin1 was detected using an anti hPin1 PPIase domain antiserum followed by incubation with a horseradish peroxidase-conjugated secondary antibody. Visualization was done using the SuperSignal® substrate. FIG. 5B indicates concentrations of peptide 16 were incubated with HeLa cell lysate in the absence of phosphatase inhibitors. The peptide 16/hPin1-complex was then precipitated from the respective mixture using streptavidin sepharose and isolated from the supernatant. Extracted proteins and the supernatants were then analyzed by SDS PAGE. […] After western blotting, hPin1 was detected using an anti hPin1 PPIase domain antiserum as primary antibody and a horseradish peroxidase-conjugated secondary antibody. […]
(§2) Peptide 16 (see Table III) was incubated with HeLa cell or X. laevis embryo lysate for 1 hour at 4° C. […] The samples were then heated to 95° C. and analyzed by SDS PAGE. […]

authentic hPin1 = molecular target: T1, authentic hPin1 (Homo sapiens, UniProt Q13526); experiment: Pull down assay, HeLa cell lysate; assay type: binding; conditions: streptavidin sepharose
T1 construct: endogenous in cells; host or cells: HeLa cell lysate
Protocol: as §1, §2

X. laevis embryos = experiment: Microinjection in X. laevis embryos, cell division; assay type: in vivo; conditions: microinjection at stage 2
Protocol: FIG. 8 depicts the blocking of cell division by the injection of peptide 17 in X. laevis embryos. 50-300 pmol of peptide 17 or 300 pmol of its nonphosphorylated derivative (control) dissolved in 10 nl PBS buffer were microinjected in the animal half of X. laevis embryos at stage 2 of development. Embryos with large and/or apoptotic appearing cells surrounded by normally developing cells were counted after further 5 hours (stage 8-9) of development. […] Each value is the average of four independent experiments.
FIGS. 9A-F depicts phenotypic analysis of X. laevis embryos after injection of peptide 17. 300 pmol of peptide 17 or its nonphosphorylated derivative dissolved in 10 nl PBS buffer were injected in the animal half of X. laevis embryos at stage 2 of development. 1.5 hour at stage 6 (A), 2.5 hours at stage 7 (B) and 4-5 hours at stage 8-9 (C, D) after injection enlarged cells became visible. Cells that are blocked in cell division are marked with a white arrow. Controls of uninjected embryos of stage 8-9 and embryos that were injected with 300 pmol of the nonphosphorylated derivative of peptide 17 are shown in panels E and F. The site where the nonphosphorylated derivative of peptide 17 was injected is marked with a white arrow (F).
FIGS. 10A-D depict the rescue of peptide 17 caused cell division block in X. laevis embryos by hPin1 (A, B) and different hPin1 variants (C, D). FIG. 10A depicts the time course of V5-tagged hPin1 expression was analyzed by preparation of X. laevis embryo lysate 1, 2 and 4 hours after injection of 1, 2 or 3 ng of V5-tagged hPin1 mRNA. In every case, the injected volume was 10 nl. Lysates were prepared in lysis buffer containing phosphatase and protease inhibitors. Samples were separated by SDS PAGE followed by western blotting. Endogenous XlPin1 and V5-tagged hPin1 were detected using an anti hPin1 PPIase domain antiserum as primary antibody followed by incubation with a horseradish peroxidase-conjugated secondary antibody. Visualization was done using the SuperSignal® substrate. […] In every case, the whole volume of injection was 10 nl. The indicated amount of the mRNA was injected in the animal half of 30 embryos at stage 2 of development. Embryos with large and/or apoptotic appearing cells surrounded by normally developed cells were counted after additional 5 hours of development (stage 8-9). […] Each percentage of vital embryos shown in the figure is the average of four independent experiments. FIG. 10C indicates the expression of V5-tagged hPin1 variants was evaluated by preparation of embryo lysate after 4 hours of injection of the respective mRNA (2 ng) in X. laevis embryos. Lysates were prepared in lysis buffer containing phosphatase and protease inhibitors. Samples were separated using SDS PAGE followed by western blot analysis. Endogenous XlPin1 and injected V5-tagged hPin1 variants were detected using an anti hPin1 PPIase domain antiserum as primary antibody and a horseradish peroxidase-conjugated secondary antibody. Visualization was done by a chemiluminescent reaction using the SuperSignal® substrate (Pierce). FIG. 10D depicts 250 pmol of peptide 17 was coinjected with 2 ng mRNA of the indicated V5-tagged hPin1 variant (whole volume 10 nl) in the animal half of 30 X. laevis embryos at stage 2 of development. Results were analyzed as described for FIG. 10B. Each percentage of vital embryos shown in the figure is the average of four independent experiments.
Microinjection was done into the animal half of X. laevis embryos at stage 2 of development. In every case, the injection volume was 10 nl. Immunofluorescence studies of frozen X. laevis embryo sections were performed as previously described (Julius et al., 2000). Ten-micrometer cryosections of stage 8 embryos were labelled using a monoclonal anti hPin1 antibody (mouse) followed by incubation with Alexa Fluor 546™-conjugated anti mouse antibody of goat serum (Molecular Probes). […]

endogenous XlPin1 = experiment: Immunofluorescence of microinjected X. laevis embryos; assay type: in vivo; conditions: stage 8
Protocol: FIG. 11 depicts the colocalization of peptide 16 and endogenous XlPin1 in X. laevis embryos. 100 pmol and 250 pmol of peptide 16 dissolved in 10 nl PBS buffer were injected in X. laevis embryos at stage 2 of development. In a control experiment, 10 nl of the pure PBS buffer were injected. Embryos were fixed at stage 8, embedded and cryosectioned. Peptide 16 is stained in green using the Oregon Green™ 488-labeled NeutrAvidin biotin-binding protein. Endogenous XlPin1 is stained in red using a monoclonal anti hPin1 antibody (mAb hPin1) from mouse and an Alexa Fluor 546™-conjugated secondary antibody. Overlapping patterns are shown in yellow in the merged images. Nuclei are stained with DAPI.
Microinjection was done into the animal half of X. laevis embryos at stage 2 of development. In every case, the injection volume was 10 nl. Immunofluorescence studies of frozen X. laevis embryo sections were performed as previously described (Julius et al., 2000). Ten-micrometer cryosections of stage 8 embryos were labelled using a monoclonal anti hPin1 antibody (mouse) followed by incubation with Alexa Fluor 546™-conjugated anti mouse antibody of goat serum (Molecular Probes). […] Samples were analyzed using an Axioplan epifluorescence microscope with fluorescein and Cy3 selective filter sets. […]

T1 sequence (Q13526 whole entry): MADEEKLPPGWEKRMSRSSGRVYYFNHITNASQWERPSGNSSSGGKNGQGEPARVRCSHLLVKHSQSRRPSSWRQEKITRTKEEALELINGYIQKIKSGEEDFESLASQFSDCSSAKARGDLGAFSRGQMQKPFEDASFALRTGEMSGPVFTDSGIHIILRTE

SMILES: CC(=O)N[C@@H](CCCCNC(=O)CCCC[C@@H]1SC[C@@H]2NC(=O)N[C@@H]21)C(=O)N[C@@H](C)C(=O)N[C@@H](C)C(=O)N[C@@H](Cc1csc2ccccc12)C(=O)N[C@@H](C(=O)N1CCCC[C@H]1C(=O)N[C@@H](Cc1ccc2ccccc2c1)C(=O)N[C@@H](CCC(N)=O)C(N)=O)[C@H](C)OP(=O)(O)O [Peptide 16, Ac-Lys(N^ε-biotinoyl)-Ala-Ala-Bth-D-Thr(PO3H2)-Pip-Nal-Gln-NH2] (Ac-K(Biotin)AA[Bta][d(pT)][Pip][2Nal]Q-NH2)
- stability in cytosol [1]: sufficiently stable
- coprecipitation of authentic XlPin1 (authentic XlPin1): coprecipitated with peptide 16 in a dose-dependent manner
- pull down of authentic hPin1 (authentic hPin1): pulled down
- effect on development of the embryos (X. laevis embryos): cell cycle blockage and embryonic death
- colocalization with XlPin1 (endogenous XlPin1; 100 pmol injected): clear nuclear colocalization
- effect on embryonic tissue (endogenous XlPin1; 250 pmol injected): distortions of the embryonic tissue
